pIC50: −log10 of the molar value.
Tests used:
phosphorylated STAT5 = assay: CTLL-2 cells, IL-2 stimulated, Western blot of phosphorylation; type: cell-based; conditions: Mus musculus, starved 6 h with compound, IL-2 150 U/mL 10 min, phosphorylated STAT5 by Western blot, read-out: IC50 g (nM) STAT5
Experimental: (§1) Incubating for 10 min and collecting cells. Adding cell lysis buffer for cell lysis. Collecting protein to perform WEST-Blot detection, detecting phosphorylated JAK1, the phosphorylation of JAK2 and the phosphorylated STAT5, and obtaining the IC50 value.

phosphorylated JAK1 = assay: as above; type: cell-based; conditions: Mus musculus, starved 6 h with compound, IL-2 150 U/mL 10 min, phosphorylated JAK1 by Western blot, read-out: IC50 g (nM) JAK1
Experimental: as §1

phosphorylation of JAK2 = assay: as above; type: cell-based; conditions: Mus musculus, starved 6 h with compound, IL-2 150 U/mL 10 min, phosphorylation of JAK2 by Western blot, read-out: IC50 g (nM) JAK2
Experimental: as §1

JAK2 = JAK2 (Homo sapiens, UniProt O60674); assay: Caliper Mobility Shift Assay, kinase inhibition; type: biochemical; conditions: ATP by Km value
Chain of JAK2 (O60674 whole entry, species assumed): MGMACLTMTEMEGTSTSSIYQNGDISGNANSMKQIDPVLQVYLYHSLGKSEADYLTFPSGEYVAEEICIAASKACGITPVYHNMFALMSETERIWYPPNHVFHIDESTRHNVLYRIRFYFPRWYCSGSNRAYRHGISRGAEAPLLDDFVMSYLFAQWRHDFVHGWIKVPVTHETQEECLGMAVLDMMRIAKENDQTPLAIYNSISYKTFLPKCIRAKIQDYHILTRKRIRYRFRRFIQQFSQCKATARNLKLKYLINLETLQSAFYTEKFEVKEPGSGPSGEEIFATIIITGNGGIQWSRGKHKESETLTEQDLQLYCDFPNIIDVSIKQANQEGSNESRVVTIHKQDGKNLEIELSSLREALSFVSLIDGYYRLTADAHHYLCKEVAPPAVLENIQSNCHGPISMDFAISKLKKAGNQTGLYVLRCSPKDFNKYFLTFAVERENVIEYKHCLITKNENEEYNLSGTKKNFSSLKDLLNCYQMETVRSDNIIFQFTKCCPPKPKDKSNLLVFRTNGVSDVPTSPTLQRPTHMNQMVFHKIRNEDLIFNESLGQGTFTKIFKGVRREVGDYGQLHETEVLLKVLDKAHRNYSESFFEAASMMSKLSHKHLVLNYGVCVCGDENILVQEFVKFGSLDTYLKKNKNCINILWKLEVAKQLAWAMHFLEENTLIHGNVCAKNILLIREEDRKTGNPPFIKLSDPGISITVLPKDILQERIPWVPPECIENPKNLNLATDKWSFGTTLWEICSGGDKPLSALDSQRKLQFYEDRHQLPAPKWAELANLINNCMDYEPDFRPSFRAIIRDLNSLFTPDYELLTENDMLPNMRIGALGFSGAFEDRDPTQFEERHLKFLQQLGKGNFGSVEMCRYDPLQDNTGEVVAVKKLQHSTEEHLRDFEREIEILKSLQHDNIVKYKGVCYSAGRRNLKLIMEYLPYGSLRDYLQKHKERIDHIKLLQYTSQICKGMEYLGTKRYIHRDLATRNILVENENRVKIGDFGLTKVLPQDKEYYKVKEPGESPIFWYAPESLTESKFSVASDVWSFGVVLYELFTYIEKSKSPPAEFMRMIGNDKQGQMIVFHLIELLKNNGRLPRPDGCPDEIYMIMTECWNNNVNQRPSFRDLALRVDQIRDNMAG

JAK1 = JAK1 (Homo sapiens, UniProt P23458); assay: Caliper Mobility Shift Assay, kinase inhibition; type: biochemical; conditions: ATP by Km value
Chain of JAK1 (P23458 whole entry, species assumed): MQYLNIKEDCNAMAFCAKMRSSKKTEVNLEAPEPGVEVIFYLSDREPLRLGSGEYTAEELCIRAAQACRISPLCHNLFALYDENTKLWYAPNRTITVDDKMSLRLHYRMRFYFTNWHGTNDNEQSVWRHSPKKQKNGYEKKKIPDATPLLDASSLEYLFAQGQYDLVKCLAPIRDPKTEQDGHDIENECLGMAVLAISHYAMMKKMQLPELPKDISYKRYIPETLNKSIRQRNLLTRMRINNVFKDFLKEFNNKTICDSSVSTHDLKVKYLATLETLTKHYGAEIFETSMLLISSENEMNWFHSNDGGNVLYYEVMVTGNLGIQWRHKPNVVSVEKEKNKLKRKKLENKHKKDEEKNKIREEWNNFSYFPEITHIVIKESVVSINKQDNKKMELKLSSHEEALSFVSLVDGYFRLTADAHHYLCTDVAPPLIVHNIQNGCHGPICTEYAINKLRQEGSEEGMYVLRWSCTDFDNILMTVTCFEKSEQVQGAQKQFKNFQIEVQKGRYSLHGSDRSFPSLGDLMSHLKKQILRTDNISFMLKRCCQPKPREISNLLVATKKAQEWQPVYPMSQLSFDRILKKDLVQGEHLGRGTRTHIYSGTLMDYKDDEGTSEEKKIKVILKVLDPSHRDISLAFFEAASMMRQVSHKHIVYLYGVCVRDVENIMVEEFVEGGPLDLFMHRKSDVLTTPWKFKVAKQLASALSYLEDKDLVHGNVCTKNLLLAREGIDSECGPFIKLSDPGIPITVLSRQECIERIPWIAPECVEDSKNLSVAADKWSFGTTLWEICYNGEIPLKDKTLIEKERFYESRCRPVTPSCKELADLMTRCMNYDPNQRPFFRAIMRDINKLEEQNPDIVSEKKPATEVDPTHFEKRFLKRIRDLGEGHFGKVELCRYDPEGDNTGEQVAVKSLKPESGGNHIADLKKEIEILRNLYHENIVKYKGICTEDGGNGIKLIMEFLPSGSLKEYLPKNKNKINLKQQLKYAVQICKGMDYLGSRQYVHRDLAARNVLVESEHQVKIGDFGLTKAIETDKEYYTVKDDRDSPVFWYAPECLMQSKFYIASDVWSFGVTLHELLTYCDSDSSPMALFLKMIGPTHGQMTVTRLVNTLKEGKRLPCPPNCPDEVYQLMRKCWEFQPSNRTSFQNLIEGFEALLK

JAK3 = target: T1, JAK3 (Homo sapiens, UniProt P52333); assay: Caliper Mobility Shift Assay, kinase inhibition; type: biochemical; conditions: ATP by Km value
T1 sequence (P52333 1-1124): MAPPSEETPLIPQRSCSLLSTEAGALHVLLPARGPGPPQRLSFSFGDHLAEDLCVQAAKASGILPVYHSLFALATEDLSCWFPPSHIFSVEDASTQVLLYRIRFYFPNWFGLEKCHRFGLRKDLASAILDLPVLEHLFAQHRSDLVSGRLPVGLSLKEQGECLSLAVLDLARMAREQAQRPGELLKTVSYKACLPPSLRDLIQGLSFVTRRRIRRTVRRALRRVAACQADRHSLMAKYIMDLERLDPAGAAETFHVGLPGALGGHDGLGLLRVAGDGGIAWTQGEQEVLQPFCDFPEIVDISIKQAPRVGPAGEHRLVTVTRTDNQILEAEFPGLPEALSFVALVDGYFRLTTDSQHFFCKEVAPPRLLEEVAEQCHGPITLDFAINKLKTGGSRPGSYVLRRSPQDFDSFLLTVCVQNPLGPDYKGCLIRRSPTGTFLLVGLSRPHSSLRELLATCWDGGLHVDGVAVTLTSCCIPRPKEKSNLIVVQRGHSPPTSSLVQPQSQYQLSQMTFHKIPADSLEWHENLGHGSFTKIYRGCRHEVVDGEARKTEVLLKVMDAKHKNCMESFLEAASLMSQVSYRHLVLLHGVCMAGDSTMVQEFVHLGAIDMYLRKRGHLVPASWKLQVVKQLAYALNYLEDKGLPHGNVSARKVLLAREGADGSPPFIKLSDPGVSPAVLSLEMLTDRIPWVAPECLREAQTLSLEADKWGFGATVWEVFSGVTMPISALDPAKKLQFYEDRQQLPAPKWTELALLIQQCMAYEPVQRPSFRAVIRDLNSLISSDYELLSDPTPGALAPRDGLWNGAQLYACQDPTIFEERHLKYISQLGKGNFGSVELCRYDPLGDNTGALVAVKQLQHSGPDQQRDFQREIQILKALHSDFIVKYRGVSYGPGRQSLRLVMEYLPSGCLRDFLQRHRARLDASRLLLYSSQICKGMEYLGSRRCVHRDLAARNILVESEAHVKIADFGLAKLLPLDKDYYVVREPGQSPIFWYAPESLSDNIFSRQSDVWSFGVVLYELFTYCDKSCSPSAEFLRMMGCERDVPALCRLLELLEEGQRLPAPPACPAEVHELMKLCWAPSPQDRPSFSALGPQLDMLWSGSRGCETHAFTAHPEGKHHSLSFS

Jurkat cells = assay: Inhibition of cell proliferation of human lymphocytoma (CCK-8); type: cell-based; conditions: 48 h, CCK-8, 450 nm absorption
Experimental: Spreading the Jurkat cells out for in-vitro cultivation on a 96-well plate with 1500 cells in each well, making the highest concentration of the compound be 50 μM in the cultivation system, and diluting the drug concentration according to 10-time step dilution.

[1] = test system: rat with rheumatoid arthritis; assay: Collagen-induced rheumatoid arthritis model, arthritis score; type: in vivo; conditions: DBA/1J rat, bovine Type II collagen/CFA model, intragastric administration, scored 2 weeks after administration, 1-4 scoring method
Experimental: For the function of the compound inhibiting rheumatoid arthritis, selecting DBA/1J rat, carrying out subcutaneous injection after complete emulsion of 50 ug of bovine Type II collagen and isometric complete Freund's adjuvant (CFA). Strengthening immunization once 21 days after adequate emulsion of 50 ug of same antigen and incomplete Freund's adjuvant (IFA). Starting observation and recording from the 45th day. Using 1-4 scoring method: 1 score, normal; 2 scores, swelling of one joint; 3 scores, swelling of more than one joint but not all joints; 4 scores, severe swelling or stiffness of the whole claw. Adding scores of all claws to obtain the total score of arthritis in rat. Showing successful model establishment when the total joint score of the rat is more than 1. After successfully establishing the model of rat with rheumatoid arthritis, using the compound of the invention to feed the rat by intragastric administration and scoring arthritis of the rat 2 weeks after administration.

| SMILES | IC50 (phosphorylated STAT5) [nM] | IC50 (phosphorylated JAK1) [nM] | IC50 (phosphorylation of JAK2) [nM] | IC50 (JAK2) [nM] | IC50 (JAK1) [nM] | IC50 (JAK3) [nM] | pIC50 (Jurkat cells) | Score of arthritis [1] |
| --- | --- | --- | --- | --- | --- | --- | --- | --- |
| CCCCS(=O)(=O)N1CC(CC#N)(n2cc(-c3ncnc4[nH]ccc34)c3ccccc32)C1 [Example 6, 2-(3-(3-(7H-pyrrole[2,3-d]pyrimidine-4-yl)-1H-indole-1-yl)-1-(butylsulfonyl)azetidine-3-yl)acetonitrile] | 322 | 22 | 8 | 7.1 | 22 | 200 | 6.34 | 2.3 |
| CN(C)S(=O)(=O)N1CC(CC#N)(n2cc(-c3ncnc4[nH]ccc34)c3ccccc32)C1 [Example 7] | 214 | 45 | 9.6 | 1.5 | 15 | 116 | 6.91 | 2.5 |
| CCS(=O)(=O)N1CC(CC#N)(n2cc(-c3ncnc4[nH]ccc34)c3cc(OC)ccc32)C1 [Example 64, 2-(1-(ethylsulfonyl)-3-(5-methoxyl-3-(7H-pyrrole[2,3-d]pyrimidine-4-yl)-1H-indole-1-yl)azetidine-3-yl)acetonitrile] | 201 | 42.9 | 28.7 | 2.9 | 23 | 262 | 6.87 | 2.3 |
| N#CCC1(n2cc(-c3ncnc4[nH]ccc34)c3ccccc32)CN(C(=O)[C@@H]2CCCN2)C1 (stereo in doubt) [Example 11, 2-(3-(3-(7H-pyrrole[2,3-d]pyrimidine-4-yl)-1H-indole-1-yl)-1-(pyrrolidine-2-carbonyl)azetidine-3-yl)acetonitrile] | 692 | 30 | 192 | 692 | 300 | 521 | – | – |
| CCS(=O)(=O)N1CC(CC#N)(n2cc(-c3ncnc4[nH]ccc34)cn2)C1 [Baricitinib, reference compound] | – | – | – | – | – | – | – | 2.4 |
| CCS(=O)(=O)N1CC(CC#N)(n2cc(-c3ncnc4[nH]ccc34)c3ccc(Br)cc32)C1 [Example 31, 2-(1-(ethylsulfonyl)-3-(6-bromo-3-(7H-pyrrole[2,3-d]pyrimidine-4-yl)-1H-indole-1-yl)azetidine-3-yl)acetonitrile] | – | – | – | 8.3 | 3.5 | 21 | – | – |
| CCS(=O)(=O)N1CC(CC#N)(n2cc(-c3ncnc4[nH]ccc34)c3cc(C(F)(F)F)ccc32)C1 [Example 63, 2-(1-(ethylsulfonyl)-3-(5-trifluoromethyl-3-(7H-pyrrole[2,3-d]pyrimidine-4-yl)-1H-indole-1-yl)azetidine-3-yl)acetonitrile] | 196 | 75.2 | 38.3 | 2.4 | 7.9 | 232 | – | – |

Continued by falling IC50 (JAK2), values first:

| IC50 (phosphorylated STAT5) [nM] | IC50 (phosphorylated JAK1) [nM] | IC50 (phosphorylation of JAK2) [nM] | IC50 (JAK2) [nM] | IC50 (JAK1) [nM] | IC50 (JAK3) [nM] | pIC50 (Jurkat cells) | SMILES | Score of arthritis [1] |
| --- | --- | --- | --- | --- | --- | --- | --- | --- |
| 125 | 26.3 | 18.4 | 1.1 | 11 | 100 | – | CCS(=O)(=O)N1CC(CC#N)(n2cc(-c3ncnc4[nH]ccc34)c3ccccc32)C1 [Example 1, 2-(3-(3-(7H-pyrrole[2,3-d]pyrimidine-4-yl)-1H-indole-1-yl)-1-(ethylsulfonyl)azetidine-3-yl)acetonitrile] | – |
| 130 | 33.9 | 29.9 | 1 | 3.6 | 30 | – | CCS(=O)(=O)N1CC(CC#N)(n2cc(-c3ncnc4[nH]ccc34)c3cc(F)ccc32)C1 [Example 62, 2-(1-(ethylsulfonyl)-3-(5-fluoro-3-(7H-pyrrole[2,3-d]pyrimidine-4-yl)-1H-indole-1-yl)azetidine-3-yl)acetonitrile] | – |
| 146 | – | 5.4 | 0.9 | 8 | 128 | – | CS(=O)(=O)N1CC(CC#N)(n2cc(-c3ncnc4[nH]ccc34)c3ccccc32)C1 [Example 2, 2-(3-(3-(7H-pyrrole[2,3-d]pyrimidine-4-yl)-1H-indole-1-yl)-1-(methylsulfonyl)azetidine-3-yl)acetonitrile] | – |
| 309 | 18.5 | 15.2 | 0.61 | 0.5 | 28 | 6.65 | CCS(=O)(=O)N1CC(CC#N)(n2cc(-c3ncnc4[nH]ccc34)c3ccc(F)cc32)C1 [Example 20, 2-(1-(ethylsulfonyl)-3-(6-fluoro-3-(7H-pyrrole[2,3-d]pyrimidine-4-yl)-1H-indole-1-yl)azetidine-3-yl)acetonitrile] | 1.6 |
